# According to PubChem BioAssay (NCI):
#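 At the GI50, growth is halved. TGI denotes the concentration required for complete inhibition of growth.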
# Assays:
# Assay in all cases: DTP human tumour cell line panel, 384-well format
# K-562 leukemia = test system: K-562 leukemia
# NCI-H322M lung = test system: NCI-H322M lung
# CCRF-CEM leukemia = test system: CCRF-CEM leukemia
# NCI/ADR-RES ovarian = test system: NCI/ADR-RES ovarian
# UACC-257 melanoma = test system: UACC-257 melanoma
# OVCAR-5 ovarian = test system: OVCAR-5 ovarian
# SNB-19 CNS = test system: SNB-19 CNS
# 786-0 renal = test system: 786-0 renal
# HT29 colon = test system: HT29 colon
# KM12 colon = test system: KM12 colon
# HOP-92 NSCLC = test system: HOP-92 NSCLC
# SN12C renal = test system: SN12C renal
# HS 578T breast = test system: HS 578T breast
# UACC-62 melanoma = test system: UACC-62 melanoma
# M14 melanoma = test system: M14 melanoma
# IGROV1 ovarian = test system: IGROV1 ovarian
# SF-268 CNS = test system: SF-268 CNS
# NCI-H460 NSCLC = test system: NCI-H460 NSCLC
# SF-539 CNS = test system: SF-539 CNS
# CAKI-1 renal = test system: CAKI-1 renal
# PC-3 prostate = test system: PC-3 prostate
# A498 renal = test system: A498 renal
# SR leukemia = test system: SR leukemia
# ACHN renal = test system: ACHN renal
# SF-295 CNS = test system: SF-295 CNS
# OVCAR-8 ovarian = test system: OVCAR-8 ovarian
# MOLT-4 leukemia = test system: MOLT-4 leukemia
# A549 NSCLC = test system: A549 NSCLC
# MDA-MB-468 breast = test system: MDA-MB-468 breast
compound,measurement,setting,value
CCN1C(=O)CCCc2c1ccc(Nc1ncc(Cl)c(NC3[C@@H](C(N)=O)[C@@H]4C=C[C@H]3C4)n1)c2OC (stereo partly drawn),GI50,K-562 leukemia,722 nM
same,TGI,K-562 leukemia,11600 nM
same,GI50,NCI-H322M lung,1900 nM
same,TGI,NCI-H322M lung,5610 nM
same,GI50,CCRF-CEM leukemia,220 nM
same,TGI,CCRF-CEM leukemia,402 nM
same,GI50,NCI/ADR-RES ovarian,1070 nM
same,TGI,NCI/ADR-RES ovarian,2400 nM
same,GI50,UACC-257 melanoma,677 nM
same,TGI,UACC-257 melanoma,2150 nM
same,GI50,OVCAR-5 ovarian,559 nM
same,TGI,OVCAR-5 ovarian,2310 nM
same,GI50,SNB-19 CNS,1380 nM
same,TGI,SNB-19 CNS,7130 nM
same,GI50,786-0 renal,624 nM
same,TGI,786-0 renal,2330 nM
same,GI50,HT29 colon,450 nM
same,TGI,HT29 colon,2000 nM
same,GI50,KM12 colon,1100 nM
same,TGI,KM12 colon,8560 nM
same,GI50,HOP-92 NSCLC,665 nM
same,TGI,HOP-92 NSCLC,3990 nM
same,GI50,SN12C renal,1210 nM
same,TGI,SN12C renal,11100 nM
same,GI50,HS 578T breast,437 nM
same,TGI,HS 578T breast,1670 nM
same,GI50,UACC-62 melanoma,536 nM
same,TGI,UACC-62 melanoma,1800 nM
same,GI50,M14 melanoma,499 nM
same,TGI,M14 melanoma,1700 nM
same,GI50,IGROV1 ovarian,1320 nM
same,TGI,IGROV1 ovarian,2770 nM
same,GI50,SF-268 CNS,1220 nM
same,TGI,SF-268 CNS,4350 nM
same,GI50,NCI-H460 NSCLC,355 nM
same,TGI,NCI-H460 NSCLC,9120 nM
same,GI50,SF-539 CNS,475 nM
same,TGI,SF-539 CNS,1780 nM
same,GI50,CAKI-1 renal,1230 nM
same,TGI,CAKI-1 renal,4500 nM
same,GI50,PC-3 prostate,1240 nM
same,TGI,PC-3 prostate,3810 nM
same,GI50,A498 renal,1770 nM
same,TGI,A498 renal,11500 nM
same,GI50,SR leukemia,38 nM
same,TGI,SR leukemia,126 nM
same,GI50,ACHN renal,1200 nM
same,TGI,ACHN renal,7310 nM
same,GI50,SF-295 CNS,812 nM
same,TGI,SF-295 CNS,8310 nM
same,GI50,OVCAR-8 ovarian,349 nM
same,TGI,OVCAR-8 ovarian,1220 nM
same,GI50,MOLT-4 leukemia,137 nM
same,TGI,MOLT-4 leukemia,287 nM
same,GI50,A549 NSCLC,366 nM
same,TGI,A549 NSCLC,2550 nM
same,GI50,MDA-MB-468 breast,365 nM
same,TGI,MDA-MB-468 breast,912 nM
